According to patent US12377104B1, “Methods for treating a fatty liver disease” (Madrigal Pharmaceuticals, Inc., priority 2024, dated 2025):

Columns and labels:
[1] = MAESTRO-NASH: sex hormones at week 52; conditions: for Estradiol (female), LS mean CFB / Estradiol (female), LS mean difference from PBO (CFB) / Estradiol (male), LS mean CFB / Estradiol (male), LS mean difference from PBO (CFB) / FSH (female), LS mean CFB / FSH (female), LS mean difference from PBO (CFB) / FSH (male), LS mean CFB / FSH (male), LS mean difference from PBO (CFB) / Free testosterone (female), LS mean CFB / Free testosterone (female), LS mean difference from PBO (CFB) / Free testosterone (male), LS mean CFB / Free testosterone (male), LS mean difference from PBO (CFB) / LH (female), LS mean CFB / LH (female), LS mean difference from PBO (CFB) / LH (male), LS mean CFB / LH (male), LS mean difference from PBO (CFB) / SHBG (female), LS mean % CFB / SHBG (female), LS mean CFB / SHBG (female), LS mean difference from PBO (% CFB) / SHBG (female), LS mean difference from PBO (CFB) / SHBG (male), LS mean % CFB / SHBG (male), LS mean CFB / SHBG (male), LS mean difference from PBO (% CFB) / SHBG (male), LS mean difference from PBO (CFB) / SHBG, LS mean % CFB / SHBG, LS mean CFB / SHBG, LS mean difference from PBO (% CFB) / SHBG, LS mean difference from PBO (CFB) / Testosterone (female), LS mean CFB / Testosterone (female), LS mean difference from PBO (CFB) / Testosterone (male), LS mean CFB / Testosterone (male), LS mean difference from PBO (CFB): Week 52
[2] = test system: adults with biopsy-confirmed NASH; experiment: MAESTRO-NASH: biomarkers PRO-C3 and P3NP/ELF; type: in vivo, human
Protocol: Pearson's correlation was used to examine the association between 2 PRO-C3 enzyme-linked immunosorbent assay (ELISA) assay methods (ELISA GEN1 and ELISA GEN2, NORDIC BIOSCIENCE) using PRO-C3 baseline data (N=919). The remainder of the analyses used the ELISA GEN2 assay. Mean SD or SE and median [Q1, Q3]were calculated to summarize PRO-C3 data. […] Mean difference with 95% CI and nominal P-values were obtained from the ANCOVA. Scatterplots and Spearman's correlations with 95% CIs were used to assess the associations between P3NP/ELF and PRO-C3 both at baseline and change from baseline at Week 52.

CYP2C8 = target: T1, CYP2C8 (Homo sapiens, UniProt P10632); experiment: In vitro metabolism by CYP enzymes; type: in vitro ADME
T1 sequence (P10632 1-490): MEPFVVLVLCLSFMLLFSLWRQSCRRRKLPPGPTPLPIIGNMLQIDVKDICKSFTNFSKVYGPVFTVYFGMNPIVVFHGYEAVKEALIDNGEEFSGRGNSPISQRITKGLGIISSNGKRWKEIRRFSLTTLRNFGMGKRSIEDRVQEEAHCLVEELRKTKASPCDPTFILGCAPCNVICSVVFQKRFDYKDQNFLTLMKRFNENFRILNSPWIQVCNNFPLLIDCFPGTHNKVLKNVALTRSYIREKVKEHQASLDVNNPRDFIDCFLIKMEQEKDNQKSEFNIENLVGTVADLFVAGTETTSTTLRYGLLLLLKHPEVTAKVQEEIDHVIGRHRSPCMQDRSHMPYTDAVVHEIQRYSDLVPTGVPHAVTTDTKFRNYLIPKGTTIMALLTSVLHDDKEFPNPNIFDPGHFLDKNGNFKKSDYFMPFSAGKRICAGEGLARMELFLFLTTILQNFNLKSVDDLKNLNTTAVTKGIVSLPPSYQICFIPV

[3] = F1B patients only, 80 mg, Week 52
[4] = F1B patients only, 100 mg, Week 52
[5] = F2 patients only, 80 mg, Week 52
[6] = F2 patients only, 100 mg, Week 52
[7] = F3 patients only, 80 mg, Week 52
[8] = F3 patients only, 100 mg, Week 52
[9] = Overall, 80 mg, Week 52, ELISA GEN2
[10] = Overall, 100 mg, Week 52, ELISA GEN2

CC(C)c1cc(Oc2c(Cl)cc(-n3nc(C#N)c(=O)[nH]c3=O)cc2Cl)n[nH]c1=O [Resmetirom, 2-(3,5-dichloro-4-((5-isopropyl-6-oxo-1,6-dihydropyridazin-3-yl)oxy)phenyl)-3,5-dioxo-2,3,4,5-tetrahydro-1,2,4-triazine-6-carbonitrile]
Estradiol (female), LS mean CFB ([1]; 80 mg): 17.7 ng/L
Estradiol (female), LS mean difference from PBO (CFB) ([1]; 80 mg): 15.9 ng/L
Estradiol (male), LS mean CFB ([1]; 80 mg): 8.9 ng/L
Estradiol (male), LS mean difference from PBO (CFB) ([1]; 80 mg): 9.0 ng/L
FSH (female), LS mean CFB ([1]; 80 mg): −0.54 mIU/mL
FSH (female), LS mean difference from PBO (CFB) ([1]; 80 mg): 0.79 mIU/mL
FSH (male), LS mean CFB ([1]; 80 mg): 1.1 mIU/mL
FSH (male), LS mean difference from PBO (CFB) ([1]; 80 mg): 1.1 mIU/mL
Free testosterone (female), LS mean CFB ([1]; 80 mg): 0 nmol/L
Free testosterone (female), LS mean difference from PBO (CFB) ([1]; 80 mg): 0 nmol/L
Free testosterone (male), LS mean CFB ([1]; 80 mg): 0.04 nmol/L
Free testosterone (male), LS mean difference from PBO (CFB) ([1]; 80 mg): 0.02 nmol/L
LH (female), LS mean CFB ([1]; 80 mg): −0.93 mIU/mL
LH (female), LS mean difference from PBO (CFB) ([1]; 80 mg): −0.33 mIU/mL
LH (male), LS mean CFB ([1]; 80 mg): 1.7 mIU/mL
LH (male), LS mean difference from PBO (CFB) ([1]; 80 mg): 1.8 mIU/mL
SHBG (female), LS mean % CFB ([1]; 80 mg): 193.0%
SHBG (female), LS mean CFB ([1]; 80 mg): 74.1 nmol/L
SHBG (female), LS mean difference from PBO (% CFB) ([1]; 80 mg): 177.4%
SHBG (female), LS mean difference from PBO (CFB) ([1]; 80 mg): 73.3 nmol/L
SHBG (male), LS mean % CFB ([1]; 80 mg): 108.0%
SHBG (male), LS mean CFB ([1]; 80 mg): 41.9 nmol/L
SHBG (male), LS mean difference from PBO (% CFB) ([1]; 80 mg): 107.3%
SHBG (male), LS mean difference from PBO (CFB) ([1]; 80 mg): 40.4 nmol/L
SHBG, LS mean % CFB ([1]; 80 mg): 157.5%
SHBG, LS mean CFB ([1]; 80 mg): 60.2 nmol/L
SHBG, LS mean difference from PBO (% CFB) ([1]; 80 mg): 148.5%
SHBG, LS mean difference from PBO (CFB) ([1]; 80 mg): 58.9 nmol/L
Testosterone (female), LS mean CFB ([1]; 80 mg): 0.15 µg/L
Testosterone (female), LS mean difference from PBO (CFB) ([1]; 80 mg): 0.15 µg/L
Testosterone (male), LS mean CFB ([1]; 80 mg): 2.6 µg/L
Testosterone (male), LS mean difference from PBO (CFB) ([1]; 80 mg): 2.2 µg/L
Estradiol (female), LS mean CFB ([1]; 100 mg): 30.6 ng/L
Estradiol (female), LS mean difference from PBO (CFB) ([1]; 100 mg): 28.8 ng/L
Estradiol (male), LS mean CFB ([1]; 100 mg): 11.0 ng/L
Estradiol (male), LS mean difference from PBO (CFB) ([1]; 100 mg): 11.2 ng/L
FSH (female), LS mean CFB ([1]; 100 mg): 0.63 mIU/mL
FSH (female), LS mean difference from PBO (CFB) ([1]; 100 mg): 2.0 mIU/mL
FSH (male), LS mean CFB ([1]; 100 mg): 1.7 mIU/mL
FSH (male), LS mean difference from PBO (CFB) ([1]; 100 mg): 1.7 mIU/mL
Free testosterone (female), LS mean CFB ([1]; 100 mg): 0 nmol/L
Free testosterone (female), LS mean difference from PBO (CFB) ([1]; 100 mg): 0 nmol/L
Free testosterone (male), LS mean CFB ([1]; 100 mg): 0.03 nmol/L
Free testosterone (male), LS mean difference from PBO (CFB) ([1]; 100 mg): 0.01 nmol/L
LH (female), LS mean CFB ([1]; 100 mg): 0.80 mIU/mL
LH (female), LS mean difference from PBO (CFB) ([1]; 100 mg): 1.4 mIU/mL
LH (male), LS mean CFB ([1]; 100 mg): 1.9 mIU/mL
LH (male), LS mean difference from PBO (CFB) ([1]; 100 mg): 2.0 mIU/mL
SHBG (female), LS mean % CFB ([1]; 100 mg): 251.8%
SHBG (female), LS mean CFB ([1]; 100 mg): 94.0 nmol/L
SHBG (female), LS mean difference from PBO (% CFB) ([1]; 100 mg): 236.2%
SHBG (female), LS mean difference from PBO (CFB) ([1]; 100 mg): 93.2 nmol/L
SHBG (male), LS mean % CFB ([1]; 100 mg): 174.0%
SHBG (male), LS mean CFB ([1]; 100 mg): 60.8 nmol/L
SHBG (male), LS mean difference from PBO (% CFB) ([1]; 100 mg): 173.3%
SHBG (male), LS mean difference from PBO (CFB) ([1]; 100 mg): 59.3 nmol/L
SHBG, LS mean % CFB ([1]; 100 mg): 217.4%
SHBG, LS mean CFB ([1]; 100 mg): 80.7 nmol/L
SHBG, LS mean difference from PBO (% CFB) ([1]; 100 mg): 208.4%
SHBG, LS mean difference from PBO (CFB) ([1]; 100 mg): 79.4 nmol/L
Testosterone (female), LS mean CFB ([1]; 100 mg): 0.19 µg/L
Testosterone (female), LS mean difference from PBO (CFB) ([1]; 100 mg): 0.19 µg/L
Testosterone (male), LS mean CFB ([1]; 100 mg): 3.5 µg/L
Testosterone (male), LS mean difference from PBO (CFB) ([1]; 100 mg): 3.0 µg/L
levels of sex hormones ([1]; in vivo): little changed from baseline
PRO-C3 change from baseline ([2]; 80 mg, Week 52): −17.93 (4.61)
mean difference vs placebo in PRO-C3 change from baseline ([2]; 80 mg, Week 52): −16.9
PRO-C3 change from baseline ([2]; 100 mg, Week 52): −23.05 (4.76)
mean difference vs placebo in PRO-C3 change from baseline ([2]; 100 mg, Week 52): −22.1
Change from Baseline in PRO-C3, Mean [2, 3]: -0.69 ng/mL
Change from Baseline in PRO-C3, Median [2, 3]: 4.30 ng/mL
Change from Baseline in PRO-C3, Mean [2, 4]: -7.20 ng/mL
Change from Baseline in PRO-C3, Median [2, 4]: 0.40 ng/mL
Change from Baseline in PRO-C3, Mean [2, 5]: -11.51 ng/mL
Change from Baseline in PRO-C3, Median [2, 5]: -13.65 ng/mL
Change from Baseline in PRO-C3, Mean [2, 6]: -15.79 ng/mL
Change from Baseline in PRO-C3, Median [2, 6]: -10.10 ng/mL
Change from Baseline in PRO-C3, Mean [2, 7]: -22.42 ng/mL
Change from Baseline in PRO-C3, Median [2, 7]: -11.90 ng/mL
Change from Baseline in PRO-C3, Mean [2, 8]: -27.42 ng/mL
Change from Baseline in PRO-C3, Median [2, 8]: -18.30 ng/mL
PRO-C3 change from baseline ([2]; F3 patients, 80 mg, Week 52): −22.42 (6.38)
PRO-C3 change from baseline ([2]; F3 patients, 100 mg, Week 52): −27.42 (6.72)
Change from Baseline in PRO-C3, Mean [2, 9]: -17.93 ng/mL
Change from Baseline in PRO-C3, Median [2, 9]: -11.95 ng/mL
Change from Baseline in PRO-C3, Mean [2, 10]: -23.05 ng/mL
Change from Baseline in PRO-C3, Median [2, 10]: -13.40 ng/mL
metabolizing CYP enzymes (CYP2C8): metabolized by CYP2C8 and is not metabolized by other cytrochrome P450 (CYP) enzymes
